In patent publication US11033577B2, “Polymer conjugate of hexa-coordinated platinum complex” (priority 2015, dated 2021):

Legend:
Assay type in all cases: in vivo, BALB/cA-nu/nu mouse
[1] = test system: Human stomach cancer 4-1ST; test: Antitumor Test 1, human stomach cancer 4-1ST transplanted mouse; conditions: caudal vein
Text: (§1) Human stomach cancer 4-1ST was subcultured subcutaneously in a BALB/cA-nu/nu mouse (hereinafter, nude mouse). Human stomach cancer 4-1ST was obtained from the Central Institute for Experimental Animals.
(§2) Human stomach cancer 4-1ST was collected subcutaneously from a nude mouse and was finely cut into blocks each measuring about 3 mm on each side. The tumor blocks thus obtained were subcutaneously transplanted into the dorsal side of nude mice using a trocar. On the 15th day after transplantation, where the average tumor volume had reached about 100 to 200 mm^3, various drugs were administered through the caudal vein. The use and dose (in terms of drug) of the various administered drugs are as follows. In regard to the Example 1 compound, the compound was dissolved in a 5% glucose injectable solution, and the solution was administered once at a dose of 25 mg/kg or 12.5 mg/kg. In regard to the Example 2 compound, the compound was dissolved in a 5% glucose injectable solution, and the solution was administered once at a dose of 25 mg/kg or 12.5 mg/kg. In regard to the Example 3 compound, the compound was dissolved in a 5% glucose injectable solution, and the solution was administered once at a dose of 20 mg/kg or 10 mg/kg. In regard to the Example 4 compound, the compound was dissolved in a 5% glucose injectable solution, and the solution was administered once at a dose of 20 mg/kg or 10 mg/kg. In regard to the Example 5 compound, the compound was dissolved in a 5% glucose injectable solution, and the solution was administered once at a dose of 20 mg/kg or 10 mg/kg. As a control drug, l-OHP was administered once at a dose of 20 mg/kg, and cisplatin was administered once at a dose of 10 mg/kg. Regarding the amounts of administration of l-OHP and cisplatin and the high amounts of administration of the various Example compounds, the maximum tolerable doses (MTD doses) were employed for all of the compounds. After the administration, the major axis (L) and the minor axis (W) of the tumor were measured over time using calipers, and the tumor volume (L×W×W×0.5) was calculated. The test was performed by employing four animals per group for all of a non-administered group as well as various drug-administered groups. During the period from the initiation of administration to the 21st day after administration, the relative tumor volume (T/C (%)) of each drug-administered group based on the relative tumor volume of a non-drug-administered group as 100 was calculated by the following formula as an index for the antitumor effect. T/C(%)=Relative tumor volume of administered group/relative tumor volume of non-administered group×100 Formula: […]

[2] = Maximum tolerable dose (MTD dose) in nude mice; conditions: administered once, caudal vein, dose in terms of drug
Procedure: as §2
Human stomach cancer 4-1ST was collected subcutaneously from a nude mouse and was cut into blocks each measuring about 3 mm on each side. The tumor blocks thus obtained were transplanted subcutaneously on the dorsal side of nude mice using a trocar. On the 17th day after transplantation, where the average tumor volume had reached about 100 to 200 mm^3, various drugs were administered through the caudal vein. The use and dose (in terms of drug) of the various administered drugs are as follows. In regard to the Example 11 compound, the compound was dissolved in a 5% glucose injectable solution, and the solution was administered once at a dose of 15 mg/kg or 7.5 mg/kg. In regard to the Example 12 compound, the compound was dissolved in a 5% glucose injectable solution, and the solution was administered once at a dose of 30 mg/kg or 15 mg/kg. As a control drug, l-OHP was administered once at a dose of 18 mg/kg, and cisplatin was administered once at a dose of 10 mg/kg. Regarding the amounts of administration of l-OHP and cisplatin and the high amounts of administration of the various Example compounds, the maximum tolerable doses (MTD doses) were employed for all of the compounds. After the administration, the major axis (L) and the minor axis (W) of the tumor were measured over time using calipers, and the tumor volume (L×W×W×0.5) was calculated. The test was performed by employing four animals per group for all of a non-administered group as well as various drug-administered groups. […]

[3] = test system: Human stomach cancer 4-1ST; test: Antitumor Test 3, human stomach cancer 4-1ST transplanted mouse; conditions: caudal vein
Text: as §1
Human stomach cancer 4-1ST was collected subcutaneously from a nude mouse and was cut into blocks each measuring about 3 mm on each side. The tumor blocks thus obtained were transplanted subcutaneously on the dorsal side of nude mice using a trocar. On the 20th day after transplantation, where the average tumor volume had reached about 100 to 200 mm^3, various drugs were administered through the caudal vein. The use and dose (in terms of drug) of the various administered drugs are as follows. In regard to the Example 7 compound, the compound was dissolved in a 5% glucose injectable solution, and the solution was administered once at a dose of 15 mg/kg or 7.5 mg/kg. In regard to the Example 16 compound, the compound was dissolved in a 5% glucose injectable solution, and the solution was administered once at a dose of 30 mg/kg or 15 mg/kg. As a control drug, l-OHP was administered once at a dose of 18 mg/kg or 9 mg/kg, and cisplatin was administered once at a dose of 10 mg/kg. Regarding the amounts of administration of l-OHP and cisplatin and the high amounts of administration of the various Example compounds, the maximum tolerable doses (MTD doses) were employed for all of the compounds. After the administration, the major axis (L) and the minor axis (W) of the tumor were measured over time using calipers, and the tumor volume (L×W×W×0.5) was calculated. The test was performed by employing four animals per group for all of a non-administered group as well as various drug-administered groups. During the period from the initiation of administration to the 21st day after administration, the relative tumor volume (T/C (%)) of each drug-administered group based on the relative tumor volume of a non-drug-administered group as 100 was calculated by the following formula as an index for the antitumor effect. T/C(%)=Relative tumor volume of administered group/relative tumor volume of non-administered group×100 Formula: […]

N.N.[Cl][Pt][Cl] [Cisplatin, cisplatin]
T/C (%) in various numbers of days after administration ([1]; 10 mg/kg once, day 0): 100%
T/C (%) in various numbers of days after administration ([1]; 10 mg/kg once, day 3): 68%
T/C (%) in various numbers of days after administration ([1]; 10 mg/kg once, day 5): 50%
T/C (%) in various numbers of days after administration ([1]; 10 mg/kg once, day 7): 33%
T/C (%) in various numbers of days after administration ([1]; 10 mg/kg once, day 10): 33%
T/C (%) in various numbers of days after administration ([1]; 10 mg/kg once, day 14): 29%
T/C (%) in various numbers of days after administration ([1]; 10 mg/kg once, day 17): 26%
T/C (%) in various numbers of days after administration ([1]; 10 mg/kg once, day 21): 22%
maximum tolerable dose (MTD dose) ([2]; Antitumor Test 1): 10 mg/kg
maximum tolerable dose (MTD dose) ([2]; Antitumor Test 2): 10 mg/kg
maximum tolerable dose (MTD dose) ([2]; Antitumor Test 3): 10 mg/kg
T/C (%) in various numbers of days after administration ([3]; 10 mg/kg once, day 0): 100%
T/C (%) in various numbers of days after administration ([3]; 10 mg/kg once, day 4): 47%
T/C (%) in various numbers of days after administration ([3]; 10 mg/kg once, day 7): 22%
T/C (%) in various numbers of days after administration ([3]; 10 mg/kg once, day 11): 17%
T/C (%) in various numbers of days after administration ([3]; 10 mg/kg once, day 14): 16%
T/C (%) in various numbers of days after administration ([3]; 10 mg/kg once, day 18): 20%
T/C (%) in various numbers of days after administration ([3]; 10 mg/kg once, day 21): 19%

O=C1[O][Pt]2([NH][C@@H]3CCCC[C@H]3[NH]2)[O]C1=O [l-OHP, oxaliplatin]
T/C (%) in various numbers of days after administration ([1]; 20 mg/kg once, day 0): 100%
T/C (%) in various numbers of days after administration ([1]; 20 mg/kg once, day 3): 72%
T/C (%) in various numbers of days after administration ([1]; 20 mg/kg once, day 5): 57%
T/C (%) in various numbers of days after administration ([1]; 20 mg/kg once, day 7): 49%
T/C (%) in various numbers of days after administration ([1]; 20 mg/kg once, day 10): 49%
T/C (%) in various numbers of days after administration ([1]; 20 mg/kg once, day 14): 45%
T/C (%) in various numbers of days after administration ([1]; 20 mg/kg once, day 17): 46%
T/C (%) in various numbers of days after administration ([1]; 20 mg/kg once, day 21): 41%
maximum tolerable dose (MTD dose) ([2]; Antitumor Test 1): 20 mg/kg
maximum tolerable dose (MTD dose) ([2]; Antitumor Test 2): 18 mg/kg
maximum tolerable dose (MTD dose) ([2]; Antitumor Test 3): 18 mg/kg
T/C (%) in various numbers of days after administration ([3]; 9 mg/kg once, day 0): 100%
T/C (%) in various numbers of days after administration ([3]; 9 mg/kg once, day 4): 81%
T/C (%) in various numbers of days after administration ([3]; 9 mg/kg once, day 7): 74%
T/C (%) in various numbers of days after administration ([3]; 9 mg/kg once, day 11): 75%
T/C (%) in various numbers of days after administration ([3]; 9 mg/kg once, day 14): 79%
T/C (%) in various numbers of days after administration ([3]; 9 mg/kg once, day 18): 77%
T/C (%) in various numbers of days after administration ([3]; 9 mg/kg once, day 21): 87%
T/C (%) in various numbers of days after administration ([3]; 18 mg/kg once, day 0): 100%
T/C (%) in various numbers of days after administration ([3]; 18 mg/kg once, day 4): 60%
T/C (%) in various numbers of days after administration ([3]; 18 mg/kg once, day 7): 37%
T/C (%) in various numbers of days after administration ([3]; 18 mg/kg once, day 11): 36%
T/C (%) in various numbers of days after administration ([3]; 18 mg/kg once, day 14): 47%
T/C (%) in various numbers of days after administration ([3]; 18 mg/kg once, day 18): 50%
T/C (%) in various numbers of days after administration ([3]; 18 mg/kg once, day 21): 52%
